Read-outs that look alike come from different tables or passages of the source. Where no end group is shown, it is not given here.
Experiments:
Type in all cases: cell-based
Aureobasidium pullulans = details: 24 h
Description: (§1) The synthetic peptides were also screened for antifungal activity against Candida albicans (ATCC 10231), Aureobasidium pullulans and Rhodotorula sp. (the last two were obtained from Professor Arne Tronsmo, The Norwegian University of Life Sciences, As, Norway). The antifungal assay was performed as previously described (Sperstad, S. V., et al. (2009) Dev. Comp. Immunol. 33, 583-591). Briefly, fungal spores were dissolved in potato dextrose broth (Difco, Lawrence, Kans., USA) to a concentration of 4×10^5 spores/ml. The spores (50 μl) were inoculated on 96-well Nunclon™ microtiter plates containing the synthetic peptides (50 μl) dissolved in MQ-H2O. […] The negative (growth) control consisted of medium and fungal solution. The peptides were tested for activity in concentrations ranging from 100 to 0.1 μM in two-fold serial dilutions. All tests were performed in triplicates.

[1] = test system: Candida albicans (ATCC 10231)
Description: as §1

Rhodotorula sp. = details: 24 h
Description: as §1

human red blood cells = assay: Haemolytic assay; details: human red blood cells, one hour at 37° C.; for Haemolysis (%) 25 μM: peptide 25 μM; for Haemolysis (%) 200 μM: peptide 200 μM
Description: Selected synthesised peptide analogues were also screened for haemolytic activity using human red blood cells as described previously (Sperstad, S. V., et al. (2009) Dev. Comp. Immunol. 33, 583-591). The assay was performed on 96-well U-shaped microtiter plates (Nagle Nunc) with 50 μl peptide sample, 40 μl phosphate-buffered saline (PBS) and 10 μl red blood cells. After one hour of incubation at 37° C. in a shaker, the plate was centrifuged at 200 g for 5 min and the supernatants (60 μl) were carefully transferred to a new flat-bottomed polycarbonate microtiter plate (Nagle Nunc) and the release of haemoglobin (absorbance at 550 nm) was measured on a Synergy H1 multimode reader (BioTek, Vt., USA). Cell suspension added 0.05% Triton X-100 (Sigma-Aldrich, Mo., USA) in PBS served as positive (100% haemolysis) control and cell suspension added PBS served as negative (0% haemolysis, blank) control. The percent haemolysis was calculated using the formula [(Asample-Abaseline)/(Atriton-Abaseline)]×100. The cytotoxic peptide melittin (Sigma-Aldrich) was used as a positive control peptide and for comparison. The experiment was performed in triplicates with peptide concentrations ranging from 200 μM to 1.56 μM in two-fold dilutions.

[2] = test system: Escherichia coli (Ec, ATCC 25922)
Description: (§2) The peptides were screened for antibacterial activity against two strains of Gram-positive and two strains of Gram-negative bacteria; Corynebacterium glutamicum (Cg, ATCC 13032), Staphylococcus aureus (Sa, ATCC 9144), Pseudomonas aeruginosa (Pa, ATCC 27853) and Escherichia coli (Ec, ATCC 25922).
(§3) Cultures stored at −80° C. in glycerol were transferred to Müller-Hinton plates (MH, Difco, Lawrence, Kans., USA) and incubated for 24 h at 35° C. A few colonies of each bacterial strain were transferred to 5 ml liquid MH medium and left shaking at room temperature overnight at 600 rpm. Cultures of actively growing bacteria (20 μl) were inoculated in 5 ml MH medium and left shaking for 2 h at room temperature. The antibacterial assays were performed as previously described by Sperstad, S. V., et al. ((2009) Mol. Immunol. 46, 2604-2612) with the following exception: bacterial cultures were diluted with medium to 2.5-3×10^4 bacteria/ml concentrations. An aliquot of 50 μl (1250-1500 bacterial cells) was added to each well in 96-well Nunclon™ microtiter plates (Nagle Nunc Int., Denmark) preloaded with peptide solution (50 μl).
(§4) The microtiter plates were incubated for 24 h at 35° C. with optical density recorded every hour using an Envision 2103 multilabel reader, controlled by a Wallac Envision manager (PerkinElmer, Conn., USA). Minimum inhibitory concentration (MIC) was defined as a sample showing complete inhibition (as measured by optical density at 595 nm) compared to the negative (growth) controls, consisting of bacteria and water. Oxytetracycline (20 μM) served as a positive (inhibition) control.
(§5) The synthetic peptides were tested for antibacterial activity in concentrations ranging from 200 to 0.1 μM in two-fold dilutions. All tests were performed in triplicates.

[3] = test system: Pseudomonas aeruginosa (Pa, ATCC 27853)
Description: as §2, §3, §4, §5

[4] = test system: Corynebacterium glutamicum (Cg, ATCC 13032)
Description: as §2, §3, §4, §5

[5] = test system: Staphylococcus aureus (Sa, ATCC 9144)
Description: as §2, §3, §4, §5

[6] = 24 h at 35° C., complete inhibition by OD 595 nm

| Substance | MIC (μM) A. pullulans (Aureobasidium pullulans) [µM] | MIC (μM) C. albicans ([1]; ATCC 10231, 24 h) [µM] | MIC (μM) Rhodotorula sp. (Rhodotorula sp.) [µM] | Haemolysis (%) 25 μM (human red blood cells) [%] | Haemolysis (%) 200 μM (human red blood cells) [%] | MIC (μM) Ec ([2]; ATCC 25922, 24 h) [µM] | MIC (μM) Pa ([3]; ATCC 27853, 24 h) [µM] | MIC (μM) Cg ([4]; ATCC 13032, 24 h) [µM] | MIC (μM) Sa ([5]; ATCC 9144, 24 h) [µM] | MIC (μM) C. albicans ([1]; no visible growth after 24 h at room temperature) [µM] | MIC (μM) Sa [5, 6] [µM] | MIC (μM) Ec [2, 6] [µM] | MIC (μM) Pa [3, 6] [µM] | MIC (μM) Cg [4, 6] [µM] |
| --- | --- | --- | --- | --- | --- | --- | --- | --- | --- | --- | --- | --- | --- | --- |
| AWWRRTVAKVRK-NH2 [Peptide G1A, AWWRRTVAKVRK-NH2] | 50 | 25 | 12.5 | 0.0 | 1.6 | 12.5 | 6.3 | 0.8 | – | – | – | – | – | – |
| GAWRRTVAKVRK-NH2 [Peptide W2A, GAWRRTVAKVRK-NH2] | 50 | 50 | 25 | 0.0 | 0.0 | – | – | 3.1 | 100 | – | – | – | – | – |
| GWARRTVAKVRK-NH2 [Peptide W3A, GWARRTVAKVRK-NH2] | 50 | 50 | 25 | 0.0 | 0.0 | – | – | 0.8 | – | – | – | – | – | – |
| GWARRWVAKVRK-NH2 [HC(1-12)A3W6A8K12, GWARRWVAKVRK-NH2] | 25 | 6.3 | 6.3 | – | – | 6.3 | 12.5 | 0.8 | 50 | – | – | – | – | – |
| GWWARTVAKVRK-NH2 [Peptide R4A, GWWARTVAKVRK-NH2] | 50 | 25 | 50 | 0.0 | 3.6 | 6.3 | 12.5 | 1.6 | 50 | – | – | – | – | – |
| GWWRATVAKVRK-NH2 [Peptide R5A, GWWRATVAKVRK-NH2] | 25 | 25 | 12.5 | 0.0 | 0.0 | 6.3 | 25 | 0.8 | 100 | – | – | – | – | – |
| GWWRRAVAKVRK-NH2 [Peptide T6A, GWWRRAVAKVRK-NH2] | 25 | 25 | 12.5 | 0.9 | 4.1 | – | – | 1.6 | – | – | – | – | – | – |
| GWWRRKVAKVRK-NH2 [HC(1-12)K6A8K12, GWWRRKVAKVRK-NH2] | 25 | 50 | 25 | – | – | 12.5 | 50 | 1.6 | 12.5 | – | – | – | – | – |
| GWWRRTAAKVRK-NH2 [Peptide V7A, GWWRRTAAKVRK-NH2] | 25 | 25 | 12.5 | 0.0 | 0.0 | 12.5 | 12.5 | 1.6 | 100 | – | – | – | – | – |
| GWWRRTVAAVRK-NH2 [Peptide K9A, GWWRRTVAAVRK-NH2] | 25 | 25 | 12.5 | 0.0 | 5.1 | – | – | 1.6 | 100 | – | – | – | – | – |
| GWWRRTVAKARK-NH2 [Peptide V10A, GWWRRTVAKARK-NH2] | 50 | 25 | 12.5 | 0.0 | 1.0 | 12.5 | 6.3 | 1.6 | 100 | – | – | – | – | – |
| GWWRRTVAKVAK-NH2 [Peptide R11A, GWWRRTVAKVAK-NH2] | 50 | 25 | 12.5 | 0.0 | 0.0 | 12.5 | 12.5 | 1.6 | 100 | – | – | – | – | – |
| GWWRRTVAKVRA-NH2 [Peptide K12A, GWWRRTVAKVRA-NH2] | 50 | 25 | 12.5 | 0.0 | 0.0 | – | – | 0.8 | 50 | – | – | – | – | – |
| GWWRRTVAKVRNAGRK-NH2 [HC(1-16)A8, GWWRRTVAKVRNAGRK] | – | – | – | 0.0 | 5.0 | 3.1 | 3.1 | 0.8 | 12.5 | – | – | – | – | – |
| GWWRRWVAKVRK-NH2 [HC(1-12)W6A8K12, GWWRRWVAKVRK-NH2] | 50 | – | – | – | – | – | – | – | – | 12.5 | 3.1 | 1.6 | 1.6 | 0.8 |
| GWWRRWVKKVRK-NH2 [HC(1-12)W6K8K12, GWWRRWVKKVRK-NH2] | 12.5 | 25 | 6.3 | – | – | 6.3 | 3.1 | 1.6 | 3.1 | – | – | – | – | – |
| H-GWWRRTVAKVRN-NH2 [HC(1-12)A8, GWWRRTVAKVRN] | – | – | – | – | – | 6.3 | 6.3 | 1.6 | 50 | – | – | – | – | – |
| H-GWWRRTVRK-NH2 [HC(1-9)R8, GWWRRTVRK] | – | – | – | – | – | 50 | 25 | 3.1 | 100 | – | – | – | – | – |
| KWWRRWVKKVRK-NH2 [HC(1-12)K1W6K8K12, KWWRRWVKKVRK-NH2] | 25 | 6.3 | 3.1 | – | – | 3.1 | 1.6 | 0.4 | 6.3 | – | – | – | – | – |
| RWWRRWVRRVRR-NH2 [HC(1-12)R1W6R8,9,12-NH2, RWWRRWVRRVRR-NH2] | 25 | 12.5 | 3.1 | – | – | 3.1 | 3.1 | 0.8 | 3.1 | – | – | – | – | – |
| WWRRTVAKVRNAGRK-NH2 [HC(2-16)A7, WWRRTVAKVRNAGRK] | – | – | – | – | – | 6.3 | 25 | 0.4 | 12.5 | – | – | – | – | – |
